# Test results taken from patent publication US20100285959A1, “HERBICIDAL MIXTURES” (priority 2006, published 2010).
# Legend:
# redroot pigweed (AMARE) = test: Test 6 field trial, postemergence; format: in vivo, Amaranthus retroflexus; details: 470 g a.i./ha
# From the text: (§1) Corn seeds (hybrid ‘Pioneer 35Y62’) were planted in mid spring season, 3.8 cm deep in a silt loam soil having 4% organic matter and a pH of 5.8. Plots were 10.7 m long by 1.5 m wide with rows spaced 76 cm apart. Seeds were spaced 18 cm apart within the rows. The field was managed using conventional tillage practices. […] All treatments included a surfactant except glufosinate treatments, both alone and in combination. […] Results are summarized in Table 6 and are the means of the three replicates.
# corn (ZEAMD) [1] = test: Test 5 field trial, postemergence; format: in vivo, Zea mays ssp. indentata; details: atrazine 1120, glufosinate 470 or glyphosate 1120 g a.i./ha alone
# From the text: (§2) Corn seeds (hybrid ‘Pioneer 38H69’) were planted in mid spring season, 5.1 cm deep in a silty clay loam soil having 3% organic matter and a pH of 6.5. Plots were 9.1 m long by 3.0 m wide with rows spaced 76 cm apart. The field was managed using conventional tillage practices. […] All treatments included a surfactant except glufosinate treatments, both alone and in combination. […] Results are summarized in Table 5 and are the means of the three replicates.
# yellow foxtail (SETLU) [2] = test: Test 6 field trial, postemergence; format: in vivo, Setaria glauca; details: 470 g a.i./ha
# From the text: as §1
# shepherd's purse (CAPBP) = test: Test 5 field trial, postemergence; format: in vivo, Capsella bursa-pastoris; details: atrazine 1120, glufosinate 470 or glyphosate 1120 g a.i./ha alone
# From the text: as §2
# large crabgrass (DIGSA) = test: Test 5 field trial, postemergence; format: in vivo, Digitaria sanguinalis; details: atrazine 1120, glufosinate 470 or glyphosate 1120 g a.i./ha alone
# From the text: as §2
# [3] = test system: common lambsquarters (CHEAL); test: Test 6 field trial, postemergence; format: in vivo, Chenopodium album; details: 470 g a.i./ha
# From the text: as §1
# [4] = test system: common lambsquarters (CHEAL); test: Test 5 field trial, postemergence; format: in vivo, Chenopodium album; details: atrazine 1120, glufosinate 470 or glyphosate 1120 g a.i./ha alone
# From the text: as §2
# [5] = test system: Pennsylvania smartweed (POLPY); test: Test 6 field trial, postemergence; format: in vivo, Polygonum pensylvanicum; details: 470 g a.i./ha
# From the text: as §1
# yellow foxtail (SETLU) [6] = test: Test 5 field trial, postemergence; format: in vivo, Setaria glauca; details: atrazine 1120, glufosinate 470 or glyphosate 1120 g a.i./ha alone
# From the text: as §2
# common ragweed (AMBEL) = test: Test 5 field trial, postemergence; format: in vivo, Ambrosia artemisiifolia; details: atrazine 1120, glufosinate 470 or glyphosate 1120 g a.i./ha alone
# From the text: as §2
# corn (ZEAMD) [7] = test: Test 6 field trial, postemergence; format: in vivo, Zea mays ssp. indentata; details: 470 g a.i./ha
# From the text: as §1
# field pennycress (THLAR) = test: Test 5 field trial, postemergence; format: in vivo, Thlaspi arvense; details: atrazine 1120, glufosinate 470 or glyphosate 1120 g a.i./ha alone
# From the text: as §2
# giant foxtail (SETFA) [8] = test: Test 5 field trial, postemergence; format: in vivo, Setaria faberi; details: atrazine 1120, glufosinate 470 or glyphosate 1120 g a.i./ha alone
# From the text: as §2
# velvetleaf (ABUTH) [9] = test: Test 6 field trial, postemergence; format: in vivo, Abutilon theophrasti; details: 470 g a.i./ha
# From the text: as §1
# giant foxtail (SETFA) [10] = test: Test 6 field trial, postemergence; format: in vivo, Setaria faberi; details: 470 g a.i./ha
# From the text: as §1
# velvetleaf (ABUTH) [11] = test: Test 5 field trial, postemergence; format: in vivo, Abutilon theophrasti; details: atrazine 1120, glufosinate 470 or glyphosate 1120 g a.i./ha alone
# From the text: as §2
smiles,measurement,setting,value
CP(=O)(O)CCC(N)C(=O)O (centres unmarked) [Glufosinate],AMARE Obs,redroot pigweed (AMARE); 14 DAA,100%
same,AMARE Obs,redroot pigweed (AMARE); 28 DAA,100%
same,ZEAMD Obs,corn (ZEAMD) [1]; 16 DAA,0%
same,ZEAMD Obs,corn (ZEAMD) [1]; 31 DAA,0%
same,SETLU Obs,yellow foxtail (SETLU) [2]; 14 DAA,95%
same,SETLU Obs,yellow foxtail (SETLU) [2]; 28 DAA,63%
same,CAPBP Obs,shepherd's purse (CAPBP); 16 DAA,100%
same,CAPBP Obs,shepherd's purse (CAPBP); 31 DAA,100%
same,DIGSA Obs,large crabgrass (DIGSA); 16 DAA,99%
same,DIGSA Obs,large crabgrass (DIGSA); 31 DAA,94%
same,CHEAL Obs,[3]; 14 DAA,100%
same,CHEAL Obs,[3]; 28 DAA,100%
same,CHEAL Obs,[4]; 16 DAA,87%
same,CHEAL Obs,[4]; 31 DAA,79%
same,POLPY Obs,[5]; 14 DAA,98%
same,POLPY Obs,[5]; 28 DAA,98%
same,SETLU Obs,yellow foxtail (SETLU) [6]; 16 DAA,98%
same,SETLU Obs,yellow foxtail (SETLU) [6]; 31 DAA,90%
same,AMBEL Obs,common ragweed (AMBEL); 16 DAA,100%
same,AMBEL Obs,common ragweed (AMBEL); 31 DAA,100%
same,ZEAMD Obs,corn (ZEAMD) [7]; 14 DAA,0%
same,ZEAMD Obs,corn (ZEAMD) [7]; 28 DAA,0%
same,THLAR Obs,field pennycress (THLAR); 16 DAA,100%
same,THLAR Obs,field pennycress (THLAR); 31 DAA,100%
same,SETFA Obs,giant foxtail (SETFA) [8]; 16 DAA,100%
same,SETFA Obs,giant foxtail (SETFA) [8]; 31 DAA,99%
same,ABUTH Obs,velvetleaf (ABUTH) [9]; 14 DAA,0%
same,ABUTH Obs,velvetleaf (ABUTH) [9]; 28 DAA,0%
same,SETFA Obs,giant foxtail (SETFA) [10]; 14 DAA,99%
same,SETFA Obs,giant foxtail (SETFA) [10]; 28 DAA,99%
same,ABUTH Obs,velvetleaf (ABUTH) [11]; 16 DAA,33%
same,ABUTH Obs,velvetleaf (ABUTH) [11]; 31 DAA,27%
